We go through 32 molecules from patent US9399635B2, “Pyrazole derivative” (GREEN TECH CO., LTD., priority 2011, dated 2016).

The molecule `COc1cc(OCc2ccncc2)ccc1/C=C/c1cc(/C=C/c2cccc3[nH]ccc23)[nH]n1` [Example 49, 3-[(1E)-2-(1H-indol-4-yl)ethenyl]-5-[(1E)-2-[2-methoxy-4-(4-pyridylmethoxy)phenyl]ethenyl]-1H-pyrazole] came in with a melting point of 207 to 215 °C.

For the molecule `COc1cc(OCc2cccnc2)ccc1/C=C/c1cc(/C=C/c2cccc3cc[nH]c23)[nH]n1` [Example 50, 3-[(1E)-2-(1H-indol-7-yl)ethenyl]-5-[(1E)-2-[2-methoxy-4-(3-pyridylmethoxy)phenyl]ethenyl]-1H-pyrazole], the melting point was 122 to 129 °C.

On to `COc1cc(OCc2ccncc2)ccc1/C=C/c1cc(/C=C/c2cccc3cc[nH]c23)[nH]n1` [Example 51, 3-[(1E)-2-(1H-indol-7-yl)ethenyl]-5-[(1E)-2-[2-methoxy-4-(4-pyridylmethoxy)phenyl]ethenyl]-1H-pyrazole], for which the melting point is 201 to 206 °C.

The molecule `COc1cc(OCc2cccnc2)ccc1/C=C/c1cc(/C=C/c2cc3ccccc3[nH]2)[nH]n1` [Example 52, 3-[(1E)-2-(1H-indol-2-yl)ethenyl]-5-[(1E)-2-[2-methoxy-4-(3-pyridylmethoxy)phenyl]ethenyl]-1H-pyrazole] gave a melting point of 126 to 138 °C.

In turn, `COc1cc(OCc2ccncc2)ccc1/C=C/c1cc(/C=C/c2cc3ccccc3[nH]2)[nH]n1` [Example 53, 3-[(1E)-2-(1H-indol-2-yl)ethenyl]-5-[(1E)-2-[2-methoxy-4-(4-pyridylmethoxy)phenyl]ethenyl]-1H-pyrazole] came in with a melting point of 124 to 134 °C.

The molecule `COc1ccc(/C=C/c2cc(/C=C/c3ccc4cc[nH]c4c3)[nH]n2)c(OC)c1` [Example 54, 3-[(1E)-2-(2,4-dimethoxyphenyl)ethenyl]-5-[(1E)-2-(1H-indol-6-yl)ethenyl]-1H-pyrazole] gave a melting point of 121 to 133 °C.

In turn, `CC(=O)Nc1ccc(/C=C/c2cc(/C=C/c3ccc4cc[nH]c4c3)[nH]n2)cc1` [Example 55, 3-[(1E)-2-[4-(acetylamino)phenyl]ethenyl]-5-[(1E)-2-(1H-indol-6-yl)ethenyl]-1H-pyrazole] gave a melting point greater than 300 °C.

On to `C(=C\c1cc(/C=C/c2ccc3cc[nH]c3c2)[nH]n1)/c1ccc(Oc2ccccc2)cc1` [Example 56, 3-[(1E)-2-(1H-indol-6-yl)ethenyl]-5-[(1E)-2-(4-phenoxyphenyl)ethenyl]-1H-pyrazole], for which the melting point lay in the range of 175 to 182 °C.

For `CS(=O)(=O)c1ccc(/C=C/c2cc(/C=C/c3ccc4cc[nH]c4c3)[nH]n2)cc1` [Example 57, 3-[(1E)-2-(1H-indol-6-yl)ethenyl]-5-[(1E)-2-[4-(methanesulfonyl)phenyl]ethenyl]-1H-pyrazole], the melting point is 260 to 268 °C.

`C(=C\c1cc(/C=C/c2ccccc2-c2cccnc2)n[nH]1)/c1ccc2cc[nH]c2c1` [Example 59, 3-[(1E)-2-(1H-indol-6-yl)ethenyl]-5-[(1E)-2-[2-(3-pyridyl)phenyl]ethenyl]-1H-pyrazole] returned a melting point of 248 to 255 °C.

On to `COc1cc(Br)c(/C=C/c2cc(/C=C/c3ccc4cc[nH]c4c3)[nH]n2)cc1O` [Example 60, 3-[(1E)-2-(2-bromo-5-hydroxy-4-methoxyphenyl)ethenyl]-5-[(1E)-2-(1H-indol-6-yl)ethenyl]-1H-pyrazole], for which the melting point is 137 to 142 °C.

As to `C(=C\c1cc(/C=C/c2ccc3cc[nH]c3c2)[nH]n1)/c1ccc(-c2ccccc2)cc1` [Example 61, 3-[(1E)-2-(1H-indol-6-yl)ethenyl]-5-[(1E)-2-(4-phenylphenyl)ethenyl]-1H-pyrazole], the melting point was 273 to 276 °C.

On to `CN1CCN(c2ccc(/C=C/c3cc(/C=C/c4ccc5cc[nH]c5c4)[nH]n3)c(Br)c2)CC1` [Example 62, 3-[(1E)-2-[2-bromo-4-(4-methylpiperazin-1-yl)phenyl]ethenyl]-5-[(1E)-2-(1H-indol-6-yl)ethenyl]-1H-pyrazole], for which the melting point was in the range of 120 to 124 °C.

With `COc1cc(OC(c2ccccc2)c2ccccc2)ccc1/C=C/c1cc(/C=C/c2ccc3cc[nH]c3c2)[nH]n1` [Example 64, 3-[(1E)-2-[4-(diphenylmethoxy)-2-methoxyphenyl]ethenyl]-5-[(1E)-2-(1H-indol-6-yl)ethenyl]-1H-pyrazole], the melting point lay in the range of 114 to 119 °C.

`COc1cc(OC(C)C)ccc1/C=C/c1cc(/C=C/c2ccc3cc[nH]c3c2)[nH]n1` [Example 65, 3-[(1E)-2-(1H-indol-6-yl)ethenyl]-5-[(1E)-2-(4-isopropoxy-2-methoxyphenyl)ethenyl]-1H-pyrazole] displayed a melting point of 107 to 113 °C.

With `COCCOc1ccc(/C=C/c2cc(/C=C/c3ccc4cc[nH]c4c3)[nH]n2)c(OC)c1` [Example 66, 3-[(1E)-2-(1H-indol-6-yl)ethenyl]-5-[(1E)-2-[2-methoxy-4-(2-methoxyethoxy)phenyl]ethenyl]-1H-pyrazole], the melting point is 90 to 96 °C.

The molecule `COc1ccc(Br)c(/C=C/c2cc(/C=C/c3ccc4cc[nH]c4c3)[nH]n2)c1` [Example 67, 3-[(1E)-2-(2-bromo-5-methoxyphenyl)ethenyl]-5-[(1E)-2-(1H-indol-6-yl)ethenyl]-1H-pyrazole] yielded a melting point of 103 to 109 °C.

Molecule `COc1ccc(COc2ccc(/C=C/c3cc(/C=C/c4ccc5cc[nH]c5c4)[nH]n3)c(OC)c2)cc1` [Example 68, 3-[(1E)-2-(1H-indol-6-yl)ethenyl]-5-[(1E)-2-[2-methoxy-4-(4-methoxybenzyloxy)phenyl]ethenyl]-1H-pyrazole] displayed a melting point of 211 to 214 °C.

`COc1cc(OCc2ccccn2)ccc1/C=C/c1cc(/C=C/c2cccc3ncccc23)[nH]n1` [Example 69, 3-[(1E)-2-(quinolin-5-yl)ethenyl]-5-[(1E)-2-[2-methoxy-4-(2-pyridylmethoxy)phenyl]ethenyl]-1H-pyrazole] displayed a melting point of 107 to 120 °C.

`COc1cc(OCc2ccccn2)ccc1/C=C/c1cc(/C=C/c2ccc3ccn(Cc4ccccc4)c3c2)[nH]n1` [Example 70, 3-[(1E)-2-(1-benzyl-1H-indol-6-yl)ethenyl]-5-[(1E)-2-[2-methoxy-4-(2-pyridylmethoxy)phenyl]ethenyl]-1H-pyrazole] registered a melting point of 89 to 93 °C.

`Brc1cc(N2CCOCC2)ccc1/C=C/c1cc(/C=C/c2ccc3cc[nH]c3c2)[nH]n1` [Example 71, 3-[(1E)-2-[2-bromo-4-(morpholin-4-yl)phenyl]ethenyl]-5-[(1E)-2-(1H-indol-6-yl)ethenyl]-1H-pyrazole] registered a melting point of 143 to 148 °C.

`COc1cc(OCc2ccccn2)ccc1/C=C/c1cc(/C=C/c2ccc3ccn(C(C)=O)c3c2)[nH]n1` [Example 73, 3-[(1E)-2-(1-acetyl-1H-indol-6-yl)ethenyl]-5-[(1E)-2-[2-methoxy-4-(2-pyridylmethoxy)phenyl]ethenyl]-1H-pyrazole] showed a melting point of 182 to 187 °C.

For `COc1cc(OCc2ccccn2)ccc1/C=C/c1cc(/C=C/c2ccc3ccn(S(C)(=O)=O)c3c2)[nH]n1` [Example 74, 3-[(1E)-2-(1-methanesulfonyl-1H-indol-6-yl)ethenyl]-5-[(1E)-2-[2-methoxy-4-(2-pyridylmethoxy)phenyl]ethenyl]-1H-pyrazole], the melting point was 212 to 214 °C.

The molecule `COc1cc(OCc2ccccn2)ccc1/C=C/c1cc(/C=C/c2c[nH]c3ncccc23)[nH]n1` [Example 75, 3-[(1E)-2-(7-aza-1H-indol-3-yl)ethenyl]-5-[(1E)-2-[2-methoxy-4-(2-pyridylmethoxy)phenyl]ethenyl]-1H-pyrazole] yielded a melting point of 219 to 223 °C.

In turn, `COc1cc(OCCN(C)C)ccc1/C=C/c1cc(/C=C/c2ccc3cc[nH]c3c2)[nH]n1` [Example 76, 3-[(1E)-2-[4-[2-(dimethylamino)ethoxy]-2-methoxyphenyl]ethenyl]-5-[(1E)-2-(1H-indol-6-yl)ethenyl]-1H-pyrazole] registered a melting point of 109 to 112 °C.

With `CC(C)c1ccc(/C=C/c2cc(/C=C/c3ccc4cc[nH]c4c3)[nH]n2)cc1` [Example 78, 3-[(1E)-2-(1H-indol-6-yl)ethenyl]-5-[(1E)-2-(4-isopropylphenyl)ethenyl]-1H-pyrazole], the melting point is 208 to 212 °C.

With `COc1cc(OCC2CCCCC2)ccc1/C=C/c1cc(/C=C/c2ccc3cc[nH]c3c2)[nH]n1` [Example 80, 3-[(1E)-2-[4-(cyclohexylmethoxy)-2-methoxyphenyl]ethenyl]-5-[(1E)-2-(1H-indol-6-yl)ethenyl]-1H-pyrazole], the melting point lay within 104 to 108 °C.

On to `COc1cc(OCCn2cccc2)ccc1/C=C/c1cc(/C=C/c2ccc3cc[nH]c3c2)[nH]n1` [Example 81, 3-[(1E)-2-(1H-indol-6-yl)ethenyl]-5-[(1E)-2-[2-methoxy-4-[2-(pyrrol-1-yl)ethoxy]phenyl]ethenyl]-1H-pyrazole], for which the melting point was in the range of 102 to 110 °C.

`CCN(CC)c1ccc(/C=C/c2cc(/C=C/c3ccc4cc[nH]c4c3)[nH]n2)c(OCCN2CCCCC2)c1` [Example 97, 3-[(1E)-2-[4-diethylamino-2-[2-(1-piperidyl)ethoxy]phenyl]ethenyl]-5-[(1E)-2-(1H-indol-6-yl)ethenyl]-1H-pyrazole] registered a melting point of 102 to 104 °C.

In the case of `COc1cc(OCc2ccccn2)ccc1/C=C/c1cc(/C=C/c2c[nH]c3ccc(F)cc23)[nH]n1` [Example 99, 3-[(1E)-2-(5-fluoro-1H-indol-3-yl)ethenyl]-5-[(1E)-2-[2-methoxy-4-(2-pyridylmethoxy)phenyl]ethenyl]-1H-pyrazole], the melting point lay within 209 to 213 °C.

`COc1ccc2[nH]cc(/C=C/c3cc(/C=C/c4ccc(OCc5ccccn5)cc4OC)n[nH]3)c2c1` [Example 100, 3-[(1E)-2-(5-methoxy-1H-indol-3-yl)ethenyl]-5-[(1E)-2-[2-methoxy-4-(2-pyridylmethoxy)phenyl]ethenyl]-1H-pyrazole]: the melting point fell in the range of 189 to 195 °C.

`C(=C\c1cc(/C=C/c2ccc3cc[nH]c3c2)[nH]n1)/c1ccc(N2CCOCC2)cc1` [Example 103, 5-[(1E)-2-(1H-indol-6-yl)ethenyl]-3-[(1E)-2-(4-morpholinophenyl)ethenyl]-1H-pyrazole] yielded a melting point of 236 to 238 °C.

Usually melting point stands for the temperature, or range, at which the solid turns liquid.
